# Tests used:
# [1] = system: ApoE-deficient mice; assay: Gross qualitative atherosclerotic lesion analysis of aortas, prevention of plaque formation (Example 1); type: in vivo; settings: 12-week old ApoE-deficient mice, 28 days
# Source text: In Examples 1 and 2 knockout mice deficient in producing the protein Apolipoprotein E [apoE] were used. ApoE-deficient mice are known to spontaneously develop atherosclerotic plaque at 12-16 weeks, which process is accelerated by feeding the mice a high fat diet. Because the atherosclerotic lesions found in these mice are histologically similar to those found in humans, the ApoE-deficient mice are used as a model for assessing the effects of a drug on atherosclerotic plaque in humans. This example was carried out on ApoE-deficient knockout mice who were before their normal development of atherosclerotic plaque which occurs in about 12 weeks to determine the effect of compound X i.e. the compound: (N-[3-[5-[(4-fluorophenyl)methyl]-2-thienyl]-1-methyl-2-propynyl]-N-hydroxyurea) on the prevention of plaque formation. Four week old female ApoE knockout mice were fed a high fat diet (21% anhydrous milk fat and 0.15% cholesterol) for a period of eight weeks. […] The results which are given in FIG. 1 were analyzed by one-way analysis of variance (ANOVA) and Student's unpaired t-test comparing each treatment arm to the appropriate control arm.
# [2] = system: patients suffering from Acute Coronary Syndrome (ACS); assay: Randomized, double blind, placebo-controlled study in patients with Acute Coronary Syndrome: biomarkers and MDCT (Example 3); type: in vivo, human; settings: 25, 50 or 100 mg per day oral
# Protocol: In this study the plaque levels were determined by use of Multidetector (64 slice coronary) Computerized Tomography (MDCT) scan indicative of such plaque in male and female patients suffering from Acute Coronary Syndrome (ACS). The efficacy of this treatment in reducing the effects of cardiovascular disease was determined by the use of biomarkers for this disease. […] At the end of the twenty-four week period the plaque in the patients is analyzed using the Multidetector (64 slice coronary) Computerized Tomography (MDCT) scan. […] Thus, the groups take the following matching capsules at each daily administration of the study medication: • Placebo: two placebo capsules • 25 mg dose: one placebo capsule plus one 25 mg capsule • 50 mg dose: 1 placebo capsule plus one 50 mg capsule • 100 mg dose: two 50 mg capsules The following baseline assessments in each of the patients are made prior to the study: history and complete physical examination; focused physical exam (for signs of bleeding disorder); 12-Lead ECG; measurement of inflammatory biomarkers (LTB4 (ex vivo) measured at trough; LTE4 urine; hsCRP; MPO; MCP1 (CCL2); M-CSF (CSF-1); MIP-2 (Cxcl2); osteopontin (Spp1)); hematology; chemistries; urinalysis; serum pregnancy test for women of childbearing potential; and 64-slice coronary MDCT imaging with contrast. […]
compound,measurement,setting,value
"CC(C#Cc1ccc(Cc2ccc(F)cc2)s1)N(O)C(N)=O (stereo not shown) [compound X, N-[3-[5-[(4-fluorophenyl)methyl]-2-thienyl]-1-methyl-2-propynyl]-N-hydroxyurea]",extent of plaque in the proximal aorta,"[1]; high fat diet, 1, 10 and 50 mg/kg/day oral once daily, vs vehicle",reductions in the extent of plaque
same,reduction of plaque formation in the proximal aorta compared to vehicle,"[1]; 50 mg/kg/day oral, p<0.03",~40%
same,"levels of inflammatory biomarkers for cardiovascular disease, percentage of patients vs placebo group",[2]; 12 weeks of dosing,decrease in the levels of inflammatory biomarkers
same,"density and/or plaque volume of coronary noncalcified plaque index lesions by 64-slice MDCT, percentage of patients vs placebo group",[2]; 24 weeks of dosing,a change in the density and/or plaque volume
